# Measurements from ChEMBL document CHEMBL5620353, “Novel antifungal triazoles with alkynyl-methoxyl side chains: Design, synthesis, and biological activity evaluation” (Eur J Med Chem, 2023).
# What was measured:
# [Candida] auris [1] = Antifungal activity against fluconazole-resistant Candida auris 918 assessed as inhibition of fungal growth incubated for 48 hrs by microbroth dilution method; assay type: functional; details: Candidozyma auris
# Saccharomyces cerevisiae [2] = experiment: Antifungal activity against recombinant Saccharomyces cerevisiae Y570 overexpressing CaCdr1 assessed as inhibition of fungal growth incubated for 48 hrs by microbroth dilution method; assay type: functional
# Cytochrome P450 1A2 = molecular target: T1, Cytochrome P450 1A2 (Homo sapiens, UniProt P05177); experiment: Inhibition of human CYP1A2 using phenacetin as substrate prewarmed for 10 mins followed by NADPH addition and measured after 10 mins by LC-MS/MS analysis; assay type: ADME
# T1 sequence (P05177 whole entry): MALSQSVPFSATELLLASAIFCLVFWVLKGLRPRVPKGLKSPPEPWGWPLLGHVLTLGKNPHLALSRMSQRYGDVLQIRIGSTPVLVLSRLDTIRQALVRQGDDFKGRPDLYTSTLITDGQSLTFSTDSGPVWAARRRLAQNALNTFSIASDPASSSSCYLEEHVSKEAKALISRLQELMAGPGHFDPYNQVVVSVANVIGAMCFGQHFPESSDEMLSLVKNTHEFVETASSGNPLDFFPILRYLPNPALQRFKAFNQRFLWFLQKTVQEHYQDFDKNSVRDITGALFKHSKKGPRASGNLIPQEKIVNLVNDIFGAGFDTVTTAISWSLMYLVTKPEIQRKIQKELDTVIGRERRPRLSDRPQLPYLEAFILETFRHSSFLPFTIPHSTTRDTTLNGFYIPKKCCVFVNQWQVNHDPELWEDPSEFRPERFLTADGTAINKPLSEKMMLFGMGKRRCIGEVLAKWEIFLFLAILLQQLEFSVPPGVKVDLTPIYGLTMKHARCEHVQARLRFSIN
# Candida parapsilosis = experiment: Antifungal activity against Candida parapsilosis 22019 assessed as inhibition of fungal growth incubated for 48 hrs by microbroth dilution method; assay type: functional; details: Lodderomyces parapsilosis
# Candida albicans [3] = experiment: Antifungal activity against fluconazole-resistant Candida albicans 904 assessed as inhibition of fungal growth incubated for 48 hrs by microbroth dilution method; assay type: functional
# [Candida] auris [4] = Antifungal activity against fluconazole-resistant Candida auris 919 assessed as inhibition of fungal growth incubated for 48 hrs by microbroth dilution method; assay type: functional; details: Candidozyma auris
# Saccharomyces cerevisiae [5] = experiment: Antifungal activity against recombinant Saccharomyces cerevisiae Y2513 overexpressing ScErg11 Y140H assessed as inhibition of fungal growth incubated for 48 hrs by microbroth dilution method; assay type: functional
# Saccharomyces cerevisiae [6] = experiment: Antifungal activity against recombinant Saccharomyces cerevisiae Y2721 overexpressing CpErg11 CpCpr assessed as inhibition of fungal growth incubated for 48 hrs by microbroth dilution method; assay type: functional
# Candida albicans [7] = experiment: Antifungal activity against Candida albicans SC5314 assessed as inhibition of fungal growth incubated for 48 hrs by microbroth dilution method; assay type: functional
# [8] = Hemolytic activity in rabbit RBC at 64 ug/ml incubated for 1 hr by absorbance based analysis; assay type: toxicity, cell-based, Oryctolagus cuniculus, Erythrocyte; details: rabbit red blood cells, at 64 µg/mL, read-out: Activity
# [9] = Cytotoxicity against HUVEC cells assessed as reduction in cell survival incubated for 24 hrs by CCK-8 assay; assay type: toxicity, cell-based; details: human
# [10] = Cytotoxicity against HUVEC cells assessed as cell survival at 128 ug/ml incubated for 24 hrs by CCK-8 assay relative to control; assay type: toxicity, cell-based; details: human, at 128 µg/mL, read-out: Survival
# Candida albicans [11] = experiment: Antifungal activity against fluconazole-resistant Candida albicans 901 assessed as inhibition of fungal growth incubated for 48 hrs by microbroth dilution method; assay type: functional
# [12] = Selectivity index, ratio of IC50 for HUVEC cells to MIC for Candida albicans SC5314; assay type: toxicity; details: human, HUVEC cells versus Candida albicans SC5314; read-out: Selectivity Index
# Saccharomyces cerevisiae [13] = experiment: Antifungal activity against recombinant Saccharomyces cerevisiae Y2459 overexpressing CaErg11 CaCpr assessed as inhibition of fungal growth incubated for 48 hrs by microbroth dilution method; assay type: functional
# [14] = Metabolic stability in human liver microsomes assessed as half life at 1 uM preincubated for 10 mins followed by NADPH addition and measured upto 60 mins by LC-MS/MS analysis; assay type: ADME, Microsome; details: time < 70 min
# [15] = Cytotoxicity against HUVEC cells assessed as cell survival at <16 ug/ml incubated for 24 hrs by CCK-8 assay relative to control; assay type: toxicity, cell-based; details: human, dose < 16 µg/ml, read-out: Survival
# Candida albicans [16] = experiment: Antifungal activity against Candida albicans SC5314 assessed as reduction in fungal growth measured after 6 to 24 hrs by optical density based method; assay type: functional, organism-based; details: dose 0.0625-16 µg/ml, time 6-24 hrs
# Candida albicans [17] = experiment: Antifungal activity against Candida albicans 10231 assessed as inhibition of fungal growth incubated for 48 hrs by microbroth dilution method; assay type: functional
# Pichia kudriavzevii = experiment: Antifungal activity against Candida krusei 4996 assessed as inhibition of fungal growth incubated for 48 hrs by microbroth dilution method; assay type: functional
# Candida tropicalis = experiment: Antifungal activity against Candida tropicalis 8915 assessed as inhibition of fungal growth incubated for 48 hrs by microbroth dilution method; assay type: functional
# Saccharomyces cerevisiae [18] = experiment: Antifungal activity against recombinant Saccharomyces cerevisiae Y2716 overexpressing CpErg11 Y132F CpCpr assessed as inhibition of fungal growth incubated for 48 hrs by microbroth dilution method; assay type: functional
# Cytochrome P450 3A4 = Cytochrome P450 3A4 (Homo sapiens, UniProt P08684); experiment: Inhibition of human CYP3A4 using midazolam as substrate prewarmed for 10 mins followed by NADPH addition and measured after 10 mins by LC-MS/MS analysis; assay type: ADME
# Cytochrome P450 3A4, sequence (P08684 whole entry): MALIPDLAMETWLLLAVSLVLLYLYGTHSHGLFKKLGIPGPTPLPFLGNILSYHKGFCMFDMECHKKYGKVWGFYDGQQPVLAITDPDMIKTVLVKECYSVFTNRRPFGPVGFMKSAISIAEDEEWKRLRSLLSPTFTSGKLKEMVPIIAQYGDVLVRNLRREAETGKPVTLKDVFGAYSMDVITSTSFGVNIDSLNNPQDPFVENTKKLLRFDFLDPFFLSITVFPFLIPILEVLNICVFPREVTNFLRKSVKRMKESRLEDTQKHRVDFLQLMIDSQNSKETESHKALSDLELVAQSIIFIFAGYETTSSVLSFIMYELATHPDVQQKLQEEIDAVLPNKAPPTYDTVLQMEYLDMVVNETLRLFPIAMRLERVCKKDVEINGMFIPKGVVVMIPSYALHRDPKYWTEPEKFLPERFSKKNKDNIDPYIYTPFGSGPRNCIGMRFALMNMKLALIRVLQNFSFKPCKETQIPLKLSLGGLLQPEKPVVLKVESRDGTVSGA
# Candida albicans [19] = experiment: Antifungal activity against Candida albicans SC5314 assessed as inhibition of fungal growth at 0.0625 ug/ml measured after 12 hrs by optical density based method; assay type: functional
# Cytochrome P450 2D6 = Cytochrome P450 2D6 (Homo sapiens, UniProt P10635); experiment: Inhibition of human CYP2D6 using dextromethorphan as substrate prewarmed for 10 mins followed by NADPH addition and measured after 10 mins by LC-MS/MS analysis; assay type: ADME
# Cytochrome P450 2D6, sequence (P10635 whole entry): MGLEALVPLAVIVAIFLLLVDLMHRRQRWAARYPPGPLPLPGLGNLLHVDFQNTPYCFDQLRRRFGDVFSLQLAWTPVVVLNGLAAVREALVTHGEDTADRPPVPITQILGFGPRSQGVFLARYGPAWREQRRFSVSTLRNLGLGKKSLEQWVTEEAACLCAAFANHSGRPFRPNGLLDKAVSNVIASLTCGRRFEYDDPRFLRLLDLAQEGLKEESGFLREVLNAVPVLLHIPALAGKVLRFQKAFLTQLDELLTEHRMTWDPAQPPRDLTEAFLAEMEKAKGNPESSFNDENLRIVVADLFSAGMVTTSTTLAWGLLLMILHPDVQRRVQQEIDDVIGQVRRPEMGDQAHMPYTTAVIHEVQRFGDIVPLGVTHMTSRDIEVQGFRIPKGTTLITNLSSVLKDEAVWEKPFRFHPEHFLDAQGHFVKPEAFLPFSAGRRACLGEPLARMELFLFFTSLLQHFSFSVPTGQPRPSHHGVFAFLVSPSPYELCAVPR
# Cytochrome P450 2C9 = Cytochrome P450 2C9 (Homo sapiens, UniProt P11712); experiment: Inhibition of human CYP2C9 using diclofenac as substrate prewarmed for 10 mins followed by NADPH addition and measured after 10 mins by LC-MS/MS analysis; assay type: ADME
# Cytochrome P450 2C9, sequence (P11712 whole entry): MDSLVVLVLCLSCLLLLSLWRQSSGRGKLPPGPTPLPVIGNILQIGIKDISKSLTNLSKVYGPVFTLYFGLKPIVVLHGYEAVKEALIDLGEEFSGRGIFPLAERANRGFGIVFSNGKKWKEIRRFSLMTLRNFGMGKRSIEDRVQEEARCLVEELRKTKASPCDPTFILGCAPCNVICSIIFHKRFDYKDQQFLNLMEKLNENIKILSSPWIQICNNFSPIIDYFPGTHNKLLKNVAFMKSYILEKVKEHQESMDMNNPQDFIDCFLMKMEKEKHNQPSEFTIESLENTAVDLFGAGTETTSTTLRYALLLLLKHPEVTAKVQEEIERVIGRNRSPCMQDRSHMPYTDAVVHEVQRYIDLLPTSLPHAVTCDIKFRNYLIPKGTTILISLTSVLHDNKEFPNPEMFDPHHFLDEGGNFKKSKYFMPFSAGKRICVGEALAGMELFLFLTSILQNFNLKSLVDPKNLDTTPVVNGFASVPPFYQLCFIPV
# Cytochrome P450 2C19 = Cytochrome P450 2C19 (Homo sapiens, UniProt P33261); experiment: Inhibition of human CYP2C19 using mephenytoin as substrate prewarmed for 10 mins followed by NADPH addition and measured after 10 mins by LC-MS/MS analysis; assay type: ADME
# Cytochrome P450 2C19, sequence (P33261 whole entry): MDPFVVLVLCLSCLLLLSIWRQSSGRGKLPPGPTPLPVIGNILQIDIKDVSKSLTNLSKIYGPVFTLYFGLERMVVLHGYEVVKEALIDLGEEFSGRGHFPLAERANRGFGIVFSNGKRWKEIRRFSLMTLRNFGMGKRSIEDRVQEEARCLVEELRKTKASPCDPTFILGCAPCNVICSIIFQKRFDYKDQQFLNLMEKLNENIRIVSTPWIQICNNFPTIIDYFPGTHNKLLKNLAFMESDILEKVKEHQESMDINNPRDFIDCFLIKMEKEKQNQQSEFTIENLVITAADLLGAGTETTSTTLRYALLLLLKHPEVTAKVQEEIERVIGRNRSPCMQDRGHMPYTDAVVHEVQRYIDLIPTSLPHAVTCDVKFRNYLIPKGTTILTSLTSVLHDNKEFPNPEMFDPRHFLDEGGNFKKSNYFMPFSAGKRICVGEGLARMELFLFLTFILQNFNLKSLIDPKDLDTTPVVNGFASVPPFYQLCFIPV
# Candida albicans [20] = experiment: Antibiofilm activity against Candida albicans SC5314 preformed biofilms at 64 ug/ml incubated for 24 hrs by XTT reduction assay relative to control; assay type: functional; parameters: scale not given: the % may be the effect or the level left; details: dose 64 µg/ml
# Saccharomyces cerevisiae [21] = experiment: Antifungal activity against recombinant Saccharomyces cerevisiae Y2411 overexpressing ScErg11 assessed as inhibition of fungal growth incubated for 48 hrs by microbroth dilution method; assay type: functional
# Saccharomyces cerevisiae [22] = experiment: Antifungal activity against recombinant Saccharomyces cerevisiae Y2462 overexpressing ScErg11 ScNcp1 assessed as inhibition of fungal growth incubated for 48 hrs by microbroth dilution method; assay type: functional
# Saccharomyces cerevisiae [23] = experiment: Antifungal activity against recombinant Saccharomyces cerevisiae Y2301 overexpressing ScErg11 Y140F assessed as inhibition of fungal growth incubated for 48 hrs by microbroth dilution method; assay type: functional
# Aspergillus fumigatus = experiment: Antifungal activity against Aspergillus fumigatus 7544 assessed as inhibition of fungal growth incubated for 72 hrs by microbroth dilution method; assay type: functional
SMILES,MIC ([Candida] auris [1]) [µg/mL],MIC (Saccharomyces cerevisiae [2]) [µg/mL],IC50 (Cytochrome P450 1A2) [nM],MIC (Candida parapsilosis) [µg/mL],MIC (Candida albicans [3]) [µg/mL],MIC ([Candida] auris [4]) [µg/mL],MIC (Saccharomyces cerevisiae [5]) [µg/mL],MIC (Saccharomyces cerevisiae [6]) [µg/mL],MIC (Candida albicans [7]) [µg/mL],"hemolysis at 1 h, 64 ug/ml [8] [%]",IC50 at 24 h [9] [µg/mL],"viability at 24 h, 128 ug/ml [10] [%]",MIC (Candida albicans [11]) [µg/mL],selectivity ratio [12],MIC (Saccharomyces cerevisiae [13]) [µg/mL],half-life at 1 µM [14] [min],viability at 24 h [15] [%],Activity (Candida albicans [16]),MIC (Candida albicans [17]) [µg/mL],MIC (Pichia kudriavzevii) [µg/mL],other results
C[C@@H](OCC#Cc1ccc(C#N)cc1)[C@](O)(Cn1cncn1)c1ccc(F)cc1F,32,16,42600,1,16,16,0.016,0.063,≤ 0.125,1.22,88.5,34.9,16,> 500,0.016,54.5,> 80,Dose-Dependent Effect,8,8,MIC (Candida tropicalis): ≤ 0.125 µg/mL; MIC (Saccharomyces cerevisiae [18]): 0.063 µg/mL; IC50 (Cytochrome P450 3A4): 607 nM; inhibition at 0.0625 µg/mL (Candida albicans [19]): 100%; IC50 (Cytochrome P450 2D6): 27200 nM; IC50 (Cytochrome P450 2C9): 34 nM; IC50 (Cytochrome P450 2C19): 566 nM; Activity (Candida albicans [20]): 55.46%; MIC (Saccharomyces cerevisiae [21]): 0.008 µg/mL; MIC (Saccharomyces cerevisiae [22]): 0.031 µg/mL; MIC (Saccharomyces cerevisiae [23]): 0.063 µg/mL; MIC (Aspergillus fumigatus): 1 µg/mL
C[C@@H](OCC#Cc1ccc(F)cc1F)[C@](O)(Cn1cncn1)c1ccc(F)cc1F,16,32,50700,0.5,16,16,0.031,0.063,≤ 0.125,1.32,76.4,36,32,> 500,0.016,50.8,> 80,Dose-Dependent Effect,8,4,MIC (Candida tropicalis): 32 µg/mL; MIC (Saccharomyces cerevisiae [18]): 0.063 µg/mL; IC50 (Cytochrome P450 3A4): 566 nM; inhibition at 0.0625 µg/mL (Candida albicans [19]): 100%; IC50 (Cytochrome P450 2D6): 23800 nM; IC50 (Cytochrome P450 2C9): 23 nM; IC50 (Cytochrome P450 2C19): 73 nM; Activity (Candida albicans [20]): 51.39%; MIC (Saccharomyces cerevisiae [21]): 0.008 µg/mL; MIC (Saccharomyces cerevisiae [22]): 0.063 µg/mL; MIC (Saccharomyces cerevisiae [23]): 0.063 µg/mL; MIC (Aspergillus fumigatus): 4 µg/mL
C[C@@H](OCC#Cc1ccncc1)[C@](O)(Cn1cncn1)c1ccc(F)cc1F,16,4,31100,≤ 0.125,32,16,0.031,0.063,≤ 0.125,1.36,64.9,28.7,32,> 500,0.016,7.35,> 80,Dose-Dependent Effect,32,4,MIC (Candida tropicalis): 32 µg/mL; MIC (Saccharomyces cerevisiae [18]): 0.063 µg/mL; IC50 (Cytochrome P450 3A4): 309 nM; inhibition at 0.0625 µg/mL (Candida albicans [19]): 100%; IC50 (Cytochrome P450 2D6): 5810 nM; IC50 (Cytochrome P450 2C9): 39 nM; IC50 (Cytochrome P450 2C19): 394 nM; Activity (Candida albicans [20]): 50.31%; MIC (Saccharomyces cerevisiae [21]): 0.008 µg/mL; MIC (Saccharomyces cerevisiae [22]): 0.063 µg/mL; MIC (Saccharomyces cerevisiae [23]): 0.063 µg/mL; MIC (Aspergillus fumigatus): 4 µg/mL
